According to US20250230138A1, “COMPOUNDS HAVING A T-STRUCTURE FORMED BY AT LEAST FOUR CYCLES FOR USE IN THE TREATMENT OF CANCER AND OTHER INDICATIONS” (TheRas, Inc., priority 2022, published 2025):
Like-named read-outs stand apart in the source and are kept apart here.

Experiments:
[1] = target: Cys242 in human PIK3CA (157-299) (Homo sapiens (Human), UniProt P42336); test: Covalent modification assay using MALDI-TOF MS; type: biochemical; conditions: 4 h reaction time point; 1 μM protein target, 1:5 protein to compound ratio (compounds 853-1279)
How it was run: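 Covalent adduct formation was read by linear-mode MALDI-TOF with sinapinic acid matrix, reported as modified-protein peak height divided by total protein peak heights. Reactions held PIK3CA (157-299) at 1 or 3.33 μM in HEPES/NaCl/MgCl2 buffer, pH 7.3, sampled after 15 min to 4 h at room temperature.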

pAKT in BT474 cells = test: Cell-based pAKT HTRF assay in BT474 cells; conditions: BT474 cells, 4 hr incubation, Compounds 10-999, read-out: pAKT inhibition IC50 in BT474 cells
How it was run: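 BT474 cells in DMEM/10% FBS were treated the day after seeding with a 9-point, 3-fold compound series from 3 μM (0.25% DMSO) for 4 hr. Lysates were mixed with d2 and Eu cryptate anti-pAKT antibodies and incubated 4-24 h at room temperature. HTRF was read with excitation at 320 nm and emission at 615 nm.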

Chain of Cys242 in human PIK3CA (157-299) (P42336 157-299): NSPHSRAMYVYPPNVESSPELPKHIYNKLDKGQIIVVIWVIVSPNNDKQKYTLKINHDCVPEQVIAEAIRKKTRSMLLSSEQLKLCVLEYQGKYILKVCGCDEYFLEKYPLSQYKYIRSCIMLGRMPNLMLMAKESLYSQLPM

IC50 (pAKT in BT474 cells)	IC50 (pAKT in BT474 cells; Homo sapiens, BT-474)	Compound	% of modification [1]
< 100 nM	–	C=CC(=O)N1CCn2nc(-c3nc(-c4ccc5cnn(C)c(=O)c5c4)c4ccsc4c3-c3c(F)cc(F)cc3OCCO)cc2[C@H]1C [Compound 899]	A (percent of modification of PIK3CA protein ≥75%)
< 100 nM	–	C=CC(=O)N1CCn2nc(-c3nc(-c4cnc5cnn(C)c5c4)c4ccsc4c3-c3c(F)cc(F)cc3OCCO)cc2C1C (stereo not drawn) [Compound 901]	A (percent of modification of PIK3CA protein ≥75%)
100 to 1000 nM	–	C=CC(=O)N1Cc2cc(-c3nc(-c4ccc5c(c4)C(=O)N(C)C5)c4ccsc4c3-c3c(F)cc(F)cc3OC)nn2[C@@H](C)C1 [Compound 905]	C (25%≤percent of modification <50%)
< 100 nM	–	C=CC(=O)N1CCn2nc(-c3nc(-c4ccc5cnncc5c4)c4ccsc4c3-c3c(F)cc(F)cc3OCCO)cc2C1C (stereo not drawn) [Compound 909]	A (percent of modification of PIK3CA protein ≥75%)
< 100 nM	–	C=CC(=O)N1CCn2nc(-c3nc(-c4cnc5cn(C)nc5c4)c4ccsc4c3-c3c(F)cc(F)cc3OCCOC)cc2C1C (stereo not drawn) [Compound 912]	A (percent of modification of PIK3CA protein ≥75%)
< 100 nM	–	C=CC(=O)N1CCn2nc(-c3nc(-c4cnc5cn(C)nc5c4)c4ccsc4c3-c3c(F)cc(F)cc3OCCO)cc2C1C (stereo not drawn) [Compound 913]	A (percent of modification of PIK3CA protein ≥75%)
< 100 nM	–	C=CC(=O)N1CCn2nc(-c3nc(-c4ccc5ncn(C)c(=O)c5c4)c4ccsc4c3-c3c(F)cc(F)cc3OCCOC)cc2C1C (stereo not drawn) [Compound 925]	A (percent of modification of PIK3CA protein ≥75%)
< 100 nM	–	C=CC(=O)N1Cc2cc(-c3nc(-c4ccc5c(c4)CNC(=O)C5)c4ccsc4c3-c3c(F)cc(F)cc3OCCO)nn2CC1C (stereo not drawn) [Compound 927]	A (percent of modification of PIK3CA protein ≥75%)
< 100 nM	–	C=CC(=O)N1CCn2nc(-c3nc(-c4cnc5c(c4)CN(C)CC5)c4ccsc4c3-c3c(F)cc(F)cc3OCCOC)cc2C1C (stereo not drawn) [Compound 929]	A (percent of modification of PIK3CA protein ≥75%)
< 100 nM	–	C=CC(=O)N1CCc2ncc(-c3nc(-c4cn(C)cn4)c4ccsc4c3-c3c(F)cc(F)cc3OCCOC)cc2C1 [Compound 943]	A (percent of modification of PIK3CA protein ≥75%)
< 100 nM	–	C=CC(=O)N1Cc2cc(-c3nc(-c4ccc5c(c4)CN(C)C5=O)c4ccsc4c3-c3c(F)cc(F)cc3OC)nn2C(C)C1 (stereo not drawn) [Compound 946]	A (percent of modification of PIK3CA protein ≥75%)
< 100 nM	–	C=CC(=O)N1Cc2cc(-c3nc(N4CCc5c(cnn5C)C4)c4ccsc4c3-c3c(F)cc(F)cc3OCCOC)nn2CC1C (stereo not drawn) [Compound 949]	A (percent of modification of PIK3CA protein ≥75%)
< 100 nM	–	C=CC(=O)N1CCn2nc(-c3nc(-c4ccc5c(c4)C(=O)N(C)CC5)c4ccsc4c3-c3c(F)cc(F)cc3OCCOC)cc2[C@H]1C [Compound 953]	A (percent of modification of PIK3CA protein ≥75%)
< 100 nM	–	C=CC(=O)N1CCn2nc(-c3nc(-c4ccc5c(c4)C(=O)NCC5)c4ccsc4c3-c3c(F)cc(F)cc3OCCO)cc2[C@H]1C [Compound 955]	A (percent of modification of PIK3CA protein ≥75%)

More lines, now with the values behind:

Compound	IC50 (pAKT in BT474 cells)	IC50 (pAKT in BT474 cells; Homo sapiens, BT-474)	% of modification [1]
C=CC(=O)N1CCn2nc(-c3nc(-c4ccc5ncn(C)c(=O)c5c4)c4ccsc4c3-c3c(F)cc(F)cc3OCCO)cc2C1C (stereo not drawn) [Compound 900]	< 100 nM	–	A (percent of modification of PIK3CA protein ≥75%)
C=CC(=O)N1CCn2nc(-c3nc(-c4cnc5cnn(C)c5c4)c4ccsc4c3-c3c(F)cc(F)cc3OCCOC)cc2C1C (stereo not drawn) [Compound 902]	< 100 nM	–	A (percent of modification of PIK3CA protein ≥75%)
C=CC(=O)N1Cc2cc(-c3nc(-c4ccc5nncn5c4)c4ccsc4c3-c3c(F)cc(F)cc3OCCO)nn2CC1C (stereo not drawn) [Compound 903]	< 100 nM	–	A (percent of modification of PIK3CA protein ≥75%)
C=CC(=O)N1Cc2cc(-c3nc(-c4ccc5c(c4)CNC5=O)c4ccsc4c3-c3c(F)cc(F)cc3OCCO)nn2CC1C (stereo not drawn) [Compound 904]	< 100 nM	–	A (percent of modification of PIK3CA protein ≥75%)
C=CC(=O)N1Cc2cc(-c3nc(-c4ccc5c(c4)CCNC5=O)c4ccsc4c3-c3c(F)cc(F)cc3OCCO)nn2CC1C (stereo not drawn) [Compound 907]	< 100 nM	–	A (percent of modification of PIK3CA protein ≥75%)
C=CC(=O)N1CCn2nc(-c3nc(-c4ccc5c(cnn5C)c4)c4ccsc4c3-c3c(F)cc(F)cc3OCCO)cc2[C@H]1C [Compound 908, 1-((R)-2-((S)-7-(2,4-difluoro-6-(2-hydroxyethoxy)phenyl)-4-(1-methyl-1H-indazol-5-yl)thieno[3,2-c]pyridin-6-yl)-4-methyl-6,7-dihydropyrazolo[1,5-a]pyrazin-5(4H)-yl)prop-2-en-1-one]	–	< 100 nM	A (percent of modification of PIK3CA protein ≥75%)
C=CC(=O)N1Cc2cc(-c3nc(-c4ccc5c(c4)CNC5=O)c4ccsc4c3-c3c(F)cc(F)cc3OC)nn2C(C)C1 (stereo not drawn) [Compound 910]	100 to 1000 nM	–	B (50%<percent of modification <75%)
C=CC(=O)N1Cc2cc(-c3nc(-c4ccc5c(c4)CN(C)C5=O)c4ccsc4c3-c3c(F)cc(F)cc3OC)nn2C(C)C1 (stereo not drawn) [Compound 911]	100 to 1000 nM	–	B (50%<percent of modification <75%)
C=CC(=O)N1CCn2nc(-c3nc(-c4ccc5c(=O)n(C)ncc5c4)c4ccsc4c3-c3c(F)cc(F)cc3OCCOC)cc2C1C (stereo not drawn) [Compound 914]	< 100 nM	–	A (percent of modification of PIK3CA protein ≥75%)
C=CC(=O)N1CCn2nc(-c3nc(-c4ccc5ncn(C)c(=O)c5c4)c4ccsc4c3-c3c(F)cc(F)cc3OCCOC)cc2C1C (stereo not drawn) [Compound 915]	< 100 nM	–	A (percent of modification of PIK3CA protein ≥75%)
C=CC(=O)N1CCn2nc(-c3nc(-c4cnc5c(c4)CN(C)C5=O)c4ccsc4c3-c3c(F)cc(F)cc3OCCO)cc2C1C (stereo not drawn) [Compound 924]	< 100 nM	–	A (percent of modification of PIK3CA protein ≥75%)
C=CC(=O)N1CCn2nc(-c3nc(-c4ccc5c(c4)CNC(=O)C5)c4ccsc4c3-c3c(F)cc(F)cc3OCCOC)cc2C1C (stereo not drawn) [Compound 926]	< 100 nM	–	A (percent of modification of PIK3CA protein ≥75%)
C=CC(=O)N1CCn2nc(-c3nc(-c4ccc5cnn(C)c(=O)c5c4)c4ccsc4c3-c3c(F)cc(F)cc3OCCOC)cc2C1C (stereo not drawn) [Compound 928]	< 100 nM	–	A (percent of modification of PIK3CA protein ≥75%)
C=CC(=O)N1CCn2nc(-c3nc(-c4ccc(N5CCN(C)CC5)nc4)c4ccsc4c3-c3c(F)cc(F)cc3OCCOC)cc2C1C (stereo not drawn) [Compound 930]	< 100 nM	–	A (percent of modification of PIK3CA protein ≥75%)
C=CC(=O)N1CCn2nc(-c3nc(-c4ccc5c(c4)CNC(=O)C5)c4ccsc4c3-c3c(F)cc(F)cc3OCCOC)cc2C1C (stereo not drawn) [Compound 931]	< 100 nM	–	A (percent of modification of PIK3CA protein ≥75%)
C=CC(=O)N1CCc2ncc(-c3nc(-c4ccc5nncn5c4)c4ccsc4c3-c3c(F)cc(F)cc3OCCOC)cc2C1 [Compound 941]	< 100 nM	–	A (percent of modification of PIK3CA protein ≥75%)
C=CC(=O)N1CCc2ncc(-c3nc(-c4ccc5nn(C)cc5c4)c4ccsc4c3-c3c(F)cc(F)cc3OCCOC)cc2C1 [Compound 945]	< 100 nM	–	A (percent of modification of PIK3CA protein ≥75%)
C=CC(=O)N1CCc2nc(-c3nc(-c4ccc5nn(C)cc5c4)c4ccsc4c3-c3c(F)cc(F)cc3OCCOC)sc2C1 [Compound 947]	< 100 nM	–	A (percent of modification of PIK3CA protein ≥75%)
C=CC(=O)N1Cc2cc(-c3nc(-c4ccnnc4)c4ccsc4c3-c3c(F)cc(F)cc3OCCOC)nn2CC1C (stereo not drawn) [Compound 948]	< 100 nM	–	A (percent of modification of PIK3CA protein ≥75%)
C=CC(=O)N1CCc2ccc(-c3nc(-c4ccc5c(c4)CNC5=O)c4ccsc4c3-c3c(F)cc(F)cc3OCCO)cc2C1 [Compound 950]	100 to 1000 nM	–	D (percent of modification <25%)
C=CC(=O)N1CCn2nc(-c3nc(-c4cnc(N5CCN(C)CC5)nc4)c4ccsc4c3-c3c(F)cc(F)cc3OCCOC)cc2[C@H]1C [Compound 951, 1-((R)-2-((S)-7-(2,4-difluoro-6-(2-methoxyethoxy)phenyl)-4-(2-(4-methylpiperazin-1-yl)pyrimidin-5-yl)thieno[3,2-c]pyridin-6-yl)-4-methyl-6,7-dihydropyrazolo[1,5-a]pyrazin-5(4H)-yl)prop-2-en-1-one]	–	< 100 nM	A (percent of modification of PIK3CA protein ≥75%)
C=CC(=O)N1CCn2nc(-c3nc(-c4ccc5c(c4)C(=O)NCC5)c4ccsc4c3-c3c(F)cc(F)cc3OCCOC)cc2[C@H]1C [Compound 956]	< 100 nM	–	A (percent of modification of PIK3CA protein ≥75%)
